Test: gradient 5% acetonitrile 3 min, to 50% in 2 min, to 85% in 15 min, held 3 min, 100 µL/min
Details: column: Zorbax Extend-C18 2.1 x 50 mm; eluents: water / acetonitrile, 0.1% formic acid
Method in brief: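 Standards, all pure, were combined into mixtures of ~100 molecules and run at 100 μL/min on a Zorbax Extend-C18 column (2.1 × 50 mm, 1.8 μm) with water and acetonitrile, each containing 0.1% formic acid. A coupled quadrupole time-of-flight mass spectrometer operated in positive and negative ionization mode. Retention time values come from computationally picked adduct peaks, each inspected manually.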

Compound | RP-LC retention time [s]
Cc1ccc(Cn2c(=O)n(CCNC(=O)C3CCCO3)c3ncccc32)cc1 (stereo unspecified) | 726
COc1ccc(-c2nc(-c3nnn(-c4ccccc4)c3C)no2)c(OC)c1 | 1000
CCCCNC(=O)C1CCN(c2nc3ccc(-c4cccnc4)nc3s2)CC1 | 588
Cc1cc(N2CCN(C(=O)c3cc4ccccc4o3)CC2)ncn1 | 559
O=C(CC1CCN(C(=O)c2ccc3oc(C4CC4)nc3c2)CC1)NCc1ccco1 | 693
Cc1ccc(NC(=O)NCC2CCOCC2)c(C)c1 | 713
COC(=O)c1c(C)[nH]c(C(=O)N2CCC(CC(=O)NCc3ccc(Cl)cc3)CC2)c1C | 774
O=C(c1ccccc1)N1CCc2cc(-c3ccno3)ccc21 | 886
CCN1C(=O)COc2ccc(-c3noc(C(C)NC(=O)c4ccccc4)n3)cc21 (stereo unspecified) | 856
CCn1nnc2cc(-c3noc(C4CC(=O)N(c5cccc(Cl)c5)C4)n3)ccc21 (stereo unspecified) | 809
COc1ccccc1CCNC(=O)C1CN(C(=O)c2c[nH]c3ccccc23)C1 | 673
CC(C)c1ccc(Nc2c(-c3ccc(N4CCOCC4)cc3)nc3ncccn23)cc1 | 806
CCn1c(CCNC(=O)c2ccccc2)nc2cccnc21 | 598
CS(=O)(=O)N1CCC(OC2CCN(C(=O)NCc3cccc(F)c3)CC2)CC1 | 730
CCOC(=O)c1nc2cc(OC)c(OC)cc2[nH]c1=O | 620
O=C(NC1CCCC1)c1ccc2c(c1)N(Cc1ccccc1)C(=O)CO2 | 873
Cc1cc2c(c(=O)n(-c3ccc(F)cc3)c(=O)n2CC(=O)Nc2cccc(C(C)C)c2)n1C | 921
COc1ccc(OC)c(CNC(=O)CCc2c(C)nn(-c3cc(N(C)C)ncn3)c2C)c1 | 726
O=C(c1ccccc1)c1ccc[nH]1 | 842
O=C(O)c1cc(-c2ccccc2)nc2ccccc12 | 849
O=C([C@@H]1C[C@H](F)CN1C(=O)NCc1ccc(F)cc1)N1CCc2ccccc2C1 | 747
OC[C@@H]1CN(C2CCCC2)C[C@H]1c1nc(-c2cccnc2)no1 | 553

Compound | RP-LC retention time [s]
CC(=O)Nc1ccc2c(c1)N(C(=O)c1cccs1)CCC2 | 695
CC(C)Cn1cc(CCNC(=O)Nc2ccc(F)c(Cl)c2)c2cccnc21 | 912
Cc1ccc(CN2C(=O)CN(S(C)(=O)=O)CC2(C)C(=O)NCc2ccc(Cl)cc2)cc1 (stereo unspecified) | 906
CCOc1ccccc1CNC(=O)C1CCN(C(=O)C2Sc3ccccc3NC2=O)CC1 (stereo unspecified) | 779
Cc1noc2nc(CCC(=O)NCCCN3CCc4ccccc4C3)nc(N3CCCCCC3)c12 | 695
COCCn1c(SCc2c(F)cccc2Cl)nnc1-c1cn(C)nc1OC | 683
O=C(NC(c1ccccc1)c1ccccc1)N1CCN(CC(F)(F)F)CC1 | 886
Cc1ccc(Oc2nccnc2N2CCCC(C(=O)NC(C)c3ccc(C)c(C)c3)C2)cc1 (stereo unspecified) | 1150
O=C(N[C@H]1C[C@@H]2C[C@H]1CN2C(=O)c1ccc(OC(F)(F)F)cc1)c1cccs1 | 842
Cc1sc(NC(=O)COc2ccc(Cl)cc2)nc1-c1ccc2c(c1)NC(=O)C(C)O2 (stereo unspecified) | 1020
COc1ccc(-c2nnc(-c3cccc(S(=O)(=O)N4CCC(C)CC4)c3)o2)cc1 | 1110
Cc1ccc(S(=O)(=O)N2CCC(n3cnc4ccc(C)cc4c3=O)CC2)cc1 | 925
Cc1ccc(CN2C[C@@H]3C(=O)N(CCCN4CCCC4=O)C(=O)[C@@H]3C2)cc1 | 589
O=C(CS(=O)(=O)Cc1ccccc1)Nc1nc2cc3c(cc2s1)OCO3 | 790
O=C(CN1C(=O)N/C(=C\c2ccc(Cl)cc2)C1=O)Nc1ccc(Cl)cc1 | 899
CCn1nc(C)c(S(=O)(=O)N2CCN(C(=O)C3(c4ccc(OC)cc4)CC3)CC2)c1C | 797
Cc1ccc(NC(=O)Cn2nc3c(Oc4ccccc4C)nccn3c2=O)cc1C | 923
COCCCNC(=O)C1CCN(S(=O)(=O)c2ccc3c(c2)NC(=O)CO3)CC1 | 627
O=C(NCCc1csc(-c2cccc(F)c2)n1)c1ccc2c(c1)OCO2 | 847
c1ccc(-c2noc(C3CCN(Cc4ccco4)C3)n2)cc1 (stereo unspecified) | 644
CNC(=O)C1CCN(c2nc3ccc(-c4ccc(F)cc4)nc3s2)CC1 | 824
COc1ccc(C(=O)NCCC2=CCCCC2)cc1 | 846

Compound | RP-LC retention time [s]
COc1cccc(-c2nc(C3CCN(S(=O)(=O)c4cccc(F)c4)CC3)no2)c1 | 1110
COc1ccc(C(=O)CSc2nc(-c3ccc(OC)cc3)ns2)cc1 | 1090
Cc1ccc(-c2ccc3nnc(CCC(=O)NCc4ccccc4C(F)(F)F)n3n2)cc1 | 794
CNC(=O)C1CCN(C(=O)Nc2ccc(NC(=O)Nc3ccc(C)c(C)c3)cc2)CC1 | 700
Cc1cc(-c2nnc(-c3ccc(F)cc3)o2)c(C)n1CC(=O)NCc1cccs1 | 905
CCCC(=O)N1CC(c2nc(-c3ccc(F)cc3)no2)C2(CCOCC2)C1 (stereo unspecified) | 872
Cc1cc(C)cc(Nc2nc3ccncc3n(C(C)C)c2=O)c1 | 745
Cc1csc(-c2cc(S(=O)(=O)NC(C)(C)C)cn2CC(=O)N2CCCC2)n1 | 1160
CCOc1ccc(-c2nc(COc3cc(C(F)(F)F)c4c(C)nn(C)c4n3)c(C)o2)cc1OC | 1330
Cc1ccnn1-c1ccc(SCC(=O)Nc2ccc(F)cc2F)nn1 | 893
CCCN1C(=O)COc2ccc(-c3noc(-c4ccc(OC)cc4)n3)cc21 | 1140
Cc1nn(-c2nc(CC(=O)N3CCCCC3)cs2)c(C)c1Cl | 1050
Cn1cc(-c2cnn3c(N)c(Br)c(C4CCCNC4)nc23)cn1 (stereo unspecified) | 613
CCN(CCCNC(=O)CCc1nnc2ccc(-c3ccccc3)nn12)c1ccccc1 | 654
CCc1cccc(NC(=O)C2CCCN(S(=O)(=O)c3cc(-c4noc(C)n4)cs3)C2)c1 (stereo unspecified) | 870
O=C(c1cc(-c2cccs2)n(C2CCS(=O)(=O)C2)n1)N1CCN(c2ccccn2)CC1 (stereo unspecified) | 602
CN1C(=O)COc2ccc(-c3csc(NC(=O)c4ccco4)n3)cc21 | 806
COc1ccccc1Nc1c(-c2ccc3c(c2)OCO3)nc2cnccn12 | 859
COCCN1C(=O)[C@H]2CN(Cc3ccc(OC)c(Br)c3)C[C@H]2C1=O | 616
COC(=O)c1cc(OCC(=O)Nc2ccccc2F)c2cc(OC)c(OC)cc2n1 | 756
Cc1cccc(-c2ocnc2C(=O)NC2CCN(C)CC2)c1 | 618
CCSc1nnc(NC(=O)CSc2nncn2C)s1 | 606
